Assay results: the supplement of paper PMC4862054

What was measured:
Test in all cases: normalised viability (% of control), CellTiter-Blue; higher = more viable cells (about 100 = DMSO control)
[1] = system: HDQ-P1; details: 1 nM; incubation time: 72 h
Procedure: (§1)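 DSRT, CellTiter-Blue viability, 72 h incubation. Signal is normalised to DMSO and benzethonium chloride controls. Value is the normalised response at dose 3.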

[2] = system: CAL-85-1; details: 1 nM; incubation time: 72 h
Procedure: as §1

[3] = system: Hs578T; details: 10 nM; incubation time: 72 h
Procedure: as §1

[4] = system: CAL-148; details: 1 nM; incubation time: 72 h
Procedure: as §1

[5] = system: MDA-MB-468; details: 10 nM; incubation time: 72 h
Procedure: as §1

[6] = system: CAL-120; details: 10 nM; incubation time: 72 h
Procedure: as §1

[7] = system: MFM-223; details: 10 nM; incubation time: 72 h
Procedure: as §1

[8] = system: CAL-51; details: 1 nM; incubation time: 72 h
Procedure: as §1

[9] = system: SK-BR-3; details: 10 nM; incubation time: 72 h
Procedure: as §1

[10] = system: DU-4475; details: 1 nM; incubation time: 72 h
Procedure: as §1

[11] = system: HCC1599; details: 10 nM; incubation time: 72 h
Procedure: as §1

[12] = system: HCC1937; details: 10 nM; incubation time: 72 h
Procedure: as §1

[13] = system: BT-474; details: 10 nM; incubation time: 72 h
Procedure: as §1

[14] = system: MDA-MB-231; details: 10 nM; incubation time: 72 h
Procedure: as §1

[15] = system: HCC1143; details: 10 nM; incubation time: 72 h
Procedure: as §1

[16] = system: MDA-MB-436; details: 10 nM; incubation time: 72 h
Procedure: as §1

[17] = system: MDA-MB-453; details: 1 nM; incubation time: 72 h
Procedure: as §1

[18] = system: BT-549; details: 10 nM; incubation time: 72 h
Procedure: as §1

[19] = system: HDQ-P1; details: incubation time: 72 h
Outline: (§2)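 Seeded at 20 µl suspension per well onto compound-loaded 384-well plates, breast cancer cell lines were incubated 72 h. CellTiter-Blue fluorescence at 560/590 nm was then read, with each plate normalised to vehicle (100) and a positive kill control (0). Normalised viability is reported at a single listed concentration of the series.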

[20] = system: CAL-85-1; details: incubation time: 72 h
Outline: as §2

[21] = system: Hs578T; details: incubation time: 72 h
Outline: as §2

[22] = system: CAL-148; details: incubation time: 72 h
Outline: as §2

[23] = system: MDA-MB-468; details: incubation time: 72 h
Outline: as §2

[24] = system: CAL-120; details: incubation time: 72 h
Outline: as §2

[25] = system: MFM-223; details: incubation time: 72 h
Outline: as §2

[26] = system: SK-BR-3; details: incubation time: 72 h
Outline: as §2

[27] = system: HCC1599; details: incubation time: 72 h
Outline: as §2

[28] = system: MDA-MB-231; details: incubation time: 72 h
Outline: as §2

[29] = system: HCC1143; details: incubation time: 72 h
Outline: as §2

[30] = system: MDA-MB-436; details: incubation time: 72 h
Outline: as §2

## CCOc1cc2ncc(C#N)c(Nc3ccc(OCc4ccccn4)c(Cl)c3)c2cc1NC(=O)/C=C/CN(C)C [Neratinib]
[1]
  normalised viability: 114%
[2]
  normalised viability: 96.5%
[3]
  normalised viability: 84.1%
[4]
  normalised viability: 93.5%
[5]
  normalised viability: 107%
[6]
  normalised viability: 84.9%
[7]
  normalised viability: 87.9%
[8]
  normalised viability: 97.1%
[9]
  normalised viability: 69.9%
[10]
  normalised viability: 97.7%
[11]
  normalised viability: 99.7%
[12]
  normalised viability: 106%
[13]
  normalised viability: 105%
[14]
  normalised viability: 118%
[15]
  normalised viability: 89.1%
[16]
  normalised viability: 117%
[17]
  normalised viability: 100%
[18]
  normalised viability: 101%
[19]; 0.3 nM
  normalised viability: 123%
[19]; 3 nM
  normalised viability: 115%
[19]; 10 nM
  normalised viability: 106%
[20]; 0.3 nM
  normalised viability: 92.7%
[20]; 3 nM
  normalised viability: 100%
[20]; 10 nM
  normalised viability: 97.1%
[21]; 1 nM
  normalised viability: 98.6%
[21]; 100 nM
  normalised viability: 88.5%
[21]; 1000 nM
  normalised viability: 93.9%
[22]; 0.3 nM
  normalised viability: 86.6%
[22]; 3 nM
  normalised viability: 78.6%
[22]; 10 nM
  normalised viability: 93.9%
[23]; 1 nM
  normalised viability: 110%
[23]; 100 nM
  normalised viability: 114%
[23]; 1000 nM
  normalised viability: 106%
[24]; 1 nM
  normalised viability: 95.7%
[24]; 100 nM
  normalised viability: 76%
[24]; 1000 nM
  normalised viability: 82.7%
[25]; 1 nM
  normalised viability: 99.2%
[25]; 100 nM
  normalised viability: 87.7%
[25]; 1000 nM
  normalised viability: 91.6%
[26]; 1 nM
  normalised viability: 107%
[26]; 100 nM
  normalised viability: 95.8%
[26]; 1000 nM
  normalised viability: 114%
[27]; 1 nM
  normalised viability: 108%
[27]; 100 nM
  normalised viability: 106%
[27]; 1000 nM
  normalised viability: 90.1%
[28]; 1 nM
  normalised viability: 114%
[28]; 100 nM
  normalised viability: 131%
[28]; 1000 nM
  normalised viability: 135%
[29]; 1 nM
  normalised viability: 97.1%
[29]; 100 nM
  normalised viability: 91.9%
[29]; 1000 nM
  normalised viability: 84.5%
[30]; 1 nM
  normalised viability: 104%
[30]; 100 nM
  normalised viability: 108%
[30]; 1000 nM
  normalised viability: 110%

## CC(C)(C)c1cc(NC(=O)Nc2ccc(-c3cn4c(n3)sc3cc(OCCN5CCOCC5)ccc34)cc2)no1 [Quizartinib]
[1]
  normalised viability: 91.8%
[2]
  normalised viability: 101%
[3]
  normalised viability: 69.5%
[4]
  normalised viability: 100%
[5]
  normalised viability: 104%
[6]
  normalised viability: 94.4%
[7]
  normalised viability: 86%
[8]
  normalised viability: 107%
[9]
  normalised viability: 91%
[10]
  normalised viability: 109%
[11]
  normalised viability: 116%
[12]
  normalised viability: 81.7%
[13]
  normalised viability: 94.6%
[14]
  normalised viability: 91.3%
[15]
  normalised viability: 95.2%
[16]
  normalised viability: 110%
[17]
  normalised viability: 99%
[18]
  normalised viability: 101%
[19]; 0.3 nM
  normalised viability: 94.2%
[19]; 3 nM
  normalised viability: 103%
[19]; 10 nM
  normalised viability: 98.8%
[20]; 0.3 nM
  normalised viability: 96.9%
[20]; 3 nM
  normalised viability: 97.8%
[20]; 10 nM
  normalised viability: 105%
[21]; 1 nM
  normalised viability: 67.6%
[21]; 100 nM
  normalised viability: 119%
[21]; 1000 nM
  normalised viability: 93.2%
[22]; 0.3 nM
  normalised viability: 98.1%
[22]; 3 nM
  normalised viability: 102%
[22]; 10 nM
  normalised viability: 96.2%
[23]; 1 nM
  normalised viability: 108%
[23]; 100 nM
  normalised viability: 108%
[23]; 1000 nM
  normalised viability: 86.1%
[24]; 1 nM
  normalised viability: 93.8%
[24]; 100 nM
  normalised viability: 96.6%
[24]; 1000 nM
  normalised viability: 96.6%
[25]; 1 nM
  normalised viability: 86%
[25]; 100 nM
  normalised viability: 86.4%
[25]; 1000 nM
  normalised viability: 83.8%
[26]; 1 nM
  normalised viability: 88.4%
[26]; 100 nM
  normalised viability: 93.5%
[26]; 1000 nM
  normalised viability: 96.5%
[27]; 1 nM
  normalised viability: 119%
[27]; 100 nM
  normalised viability: 105%
[27]; 1000 nM
  normalised viability: 63.6%
[28]; 1 nM
  normalised viability: 104%
[28]; 100 nM
  normalised viability: 118%
[28]; 1000 nM
  normalised viability: 89.7%
[29]; 1 nM
  normalised viability: 94.3%
[29]; 100 nM
  normalised viability: 95.8%
[29]; 1000 nM
  normalised viability: 94.9%
[30]; 1 nM
  normalised viability: 104%
[30]; 100 nM
  normalised viability: 45.7%
[30]; 1000 nM
  normalised viability: 87.6%
